Here are results for four molecules from publication PMC5908784, “Extracellular loops 2 and 3 of the calcitonin receptor selectively modify agonist binding and efficacy” (Biochemical Pharmacology, 2018).

What all share (type): cell-based
In assay [1] the target is T1, hCTR T295A (Homo sapiens, UniProt P30988, T295A).
T1 construct: c-Myc (N); expressed in transfected cells
T1 sequence (P30988 25-474 T295A): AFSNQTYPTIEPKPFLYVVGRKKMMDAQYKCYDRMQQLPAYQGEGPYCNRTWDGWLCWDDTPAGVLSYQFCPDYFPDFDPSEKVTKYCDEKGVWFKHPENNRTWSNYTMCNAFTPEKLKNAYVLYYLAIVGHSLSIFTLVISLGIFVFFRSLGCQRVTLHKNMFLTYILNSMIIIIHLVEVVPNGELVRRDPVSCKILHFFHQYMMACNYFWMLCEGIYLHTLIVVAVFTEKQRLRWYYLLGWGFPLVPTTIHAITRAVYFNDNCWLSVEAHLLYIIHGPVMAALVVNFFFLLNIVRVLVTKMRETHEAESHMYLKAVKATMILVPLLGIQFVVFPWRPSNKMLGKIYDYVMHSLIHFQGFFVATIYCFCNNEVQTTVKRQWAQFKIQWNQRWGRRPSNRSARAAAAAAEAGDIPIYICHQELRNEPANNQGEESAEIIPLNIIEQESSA
Kind of assay: cAMP accumulation. The conditions noted are these: mean ± S.E.M.; for Emax: cAMP maximal response, SEM; for EC50: cAMP, CV1-FlpIn cells, 30 min, IBMX. The gist of the method: (§1)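 Cells expressing the receptor mutant were seeded overnight, then stimulated with increasing ligand concentrations for 30 min in the presence of IBMX. After ethanol extraction and drying at room temperature, cAMP was measured and normalized to the 100 μM forskolin response. EC50 and Emax came from 3-parameter logistic fits.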

Assay [2] concerns the target T2, hCTR D373A (Homo sapiens, UniProt P30988, D373A).
T2 construct: c-Myc (N); expressed in transfected cells
T2 sequence (P30988 25-474 D373A): T1 sequence (P30988 25-474 T295A) with A271T, D349A
Kind of assay: cAMP accumulation. The note with it: mean ± S.E.M.; for Emax: cAMP maximal response, SEM; for EC50: cAMP, CV1-FlpIn cells, 30 min, IBMX. The gist of the method: as §1

The target of assay [3] is T3, hCTR N365A (Homo sapiens, UniProt P30988, N365A).
T3 construct: c-Myc (N); expressed in transfected cells
T3 sequence (P30988 25-474 N365A): T1 sequence (P30988 25-474 T295A) with A271T, N341A
The assay can be described thus: ERK1/2 phosphorylation. The note with it: CV1-FlpIn cells, mean ± S.E.M.; for Emax: pERK maximal response; for EC50: pERK, three-parameter logistic fit. The method, then: (§2) Cells (2.5 × 10^4 cells/well) were seeded into 96-well culture plates and incubated overnight. […] Data were normalized to the maximal response elicited by 10% FBS determined at 6 min.
(§3) Data were corrected for radioligand occupancy using the Cheng-Prusoff equation in Prism; as such data are reported as pKi. Emax and EC50 were estimated from concentration-response curves using with a 3-parameter logistic equation in Prism (v7). These values are a composite of functional affinity, efficacy and stimulus response coupling. […] Significance was accepted at P < 0.05.

Assay [4] concerns the target T4, hCTR Y299A (Homo sapiens, UniProt P30988, Y299A).
T4 construct: c-Myc (N); expressed in transfected cells
T4 sequence (P30988 25-474 Y299A): T1 sequence (P30988 25-474 T295A) with A271T, Y275A
Kind of assay: ERK1/2 phosphorylation. The note with it: CV1-FlpIn cells, mean ± S.E.M.; for Emax: pERK maximal response. The method, then:
as §2, §3

Assay [5] addresses T5, hCTR E294A (Homo sapiens, UniProt P30988, E294A).
T5 construct: c-Myc (N); expressed in transfected cells
T5 sequence (P30988 25-474 E294A): T1 sequence (P30988 25-474 T295A) with E270A, A271T
Kind of assay: ERK1/2 phosphorylation. The conditions noted are these: for Emax: read-out: Emax (% WT); for EC50: pERK, three-parameter logistic fit. On the procedure:
as §2, §3

[6] abbreviates: pERK maximal response, hCTR E294A, CV1-FlpIn cells, mean ± S.E.M.
[7] abbreviates: hCTR E294A, CV1-FlpIn cells, mean ± S.E.M.

Structures are written as SMILES. Substitutions are numbered along the chain they refer to. Like-named read-outs stand apart in the source and are kept apart here. Where a SMILES comes first, the peptide text is derived from it. Bridges are numbered along the chain shown (N, C = ends).

Take `CC[C@H](C)[C@H](NC(=O)[C@H](C)NC(=O)[C@@H](NC(=O)[C@H](CCC(N)=O)NC(=O)[C@@H]1CCCN1C(=O)[C@H](Cc1ccccc1)NC(=O)[C@@H](NC(=O)[C@H](Cc1c[nH]cn1)NC(=O)[C@H](Cc1ccccc1)NC(=O)[C@H](CCCCN)NC(=O)[C@H](CC(N)=O)NC(=O)[C@H](Cc1ccccc1)NC(=O)[C@H](CC(=O)O)NC(=O)[C@H](CCC(N)=O)NC(=O)[C@@H](NC(=O)[C@H](Cc1ccc(O)cc1)NC(=O)[C@@H](NC(=O)CNC(=O)[C@H](CC(C)C)NC(=O)[C@H](CCSC)NC(=O)[C@@H]1CSSC[C@H](N)C(=O)NCC(=O)N[C@@H](CC(N)=O)C(=O)N[C@@H](CC(C)C)C(=O)N[C@@H](CO)C(=O)N[C@@H]([C@@H](C)O)C(=O)N1)[C@@H](C)O)[C@@H](C)O)[C@@H](C)O)[C@@H](C)O)C(=O)NCC(=O)N[C@H](C(=O)NCC(=O)N[C@@H](C)C(=O)N1CCC[C@H]1C(N)=O)C(C)C` [hCT]: the maximum response (Emax) in assay [1] stood at 127 ± 11%; in assay [2], 142 ± 8%; in assay [3], 93 ± 6%; in assay [4], 56 ± 6%; in assay [5], 125 ± 10%.

On to `CC(C)C[C@H](NC(=O)CNC(=O)[C@H](C)NC(=O)[C@H](CC(C)C)NC(=O)[C@H](CCCNC(=N)N)NC(=O)[C@H](Cc1cnc[nH]1)NC(=O)[C@@H](NC(=O)[C@@H](NC(=O)[C@@H]1CSSC[C@H](NC(=O)[C@H](C)N)C(=O)N[C@@H](CC(=O)O)C(=O)N[C@@H]([C@@H](C)O)C(=O)N[C@@H](C)C(=O)N[C@@H]([C@@H](C)O)C(=O)N1)C(C)C)[C@@H](C)O)C(=O)N[C@@H](CC(C)C)C(=O)N[C@@H](CO)C(=O)N[C@@H](CCCNC(=N)N)C(=O)N[C@@H](CO)C(=O)NCC(=O)NCC(=O)N[C@H](C(=O)N[C@H](C(=O)N[C@@H](CCCCN)C(=O)N[C@@H](CC(N)=O)C(=O)N[C@@H](CC(N)=O)C(=O)N[C@@H](Cc1ccccc1)C(=O)N[C@H](C(=O)N1CCC[C@H]1C(=O)N[C@H](C(=O)N[C@@H](CC(N)=O)C(=O)N[C@H](C(=O)NCC(=O)N[C@@H](CO)C(=O)N[C@@H](CCCCN)C(=O)N[C@@H](C)C(=O)N[C@@H](Cc1ccccc1)C(N)=O)C(C)C)[C@@H](C)O)C(C)C)C(C)C)C(C)C` [hαCGRP], for which the Emax in assay [1] worked out at 79 ± 20%; in assay [2], 34 ± 5%; in assay [3], 52 ± 8%; in assay [5] (setting [6]), 66 ± 15%. For the same molecule, the EC50 in assay [1] is 107 nM; in assay [2], 11.2 nM; in assay [3], 30.2 nM; in assay [5] (setting [7]), 123 nM.

In the case of `CSCC[C@H](NC(=O)CNC(=O)[C@H](CO)NC(=O)[C@H](Cc1ccccc1)NC(=O)[C@H](CCCNC(=N)N)NC(=O)[C@H](Cc1c[nH]cn1)NC(=O)[C@H](Cc1ccccc1)NC(=O)[C@H](CC(N)=O)NC(=O)[C@H](CC(N)=O)NC(=O)[C@H](CC(C)C)NC(=O)[C@H](CC(N)=O)NC(=O)[C@H](CCCNC(=N)N)NC(=O)[C@H](Cc1c[nH]c2ccccc12)NC(=O)[C@H](Cc1ccc(O)cc1)NC(=O)[C@H](C)NC(=O)[C@H](CO)NC(=O)[C@H](CC(C)C)NC(=O)[C@@H](NC(=O)[C@@H]1CSSC[C@H](N)C(=O)N[C@@H](CO)C(=O)N[C@@H](CC(N)=O)C(=O)N[C@@H](CC(C)C)C(=O)N[C@@H](CO)C(=O)N[C@@H]([C@@H](C)O)C(=O)N1)C(C)C)C(=O)NCC(=O)N[C@@H](Cc1ccccc1)C(=O)NCC(=O)N1CCC[C@H]1C(=O)N[C@@H](CCC(=O)O)C(=O)N[C@H](C(=O)N1CCC[C@H]1C(N)=O)[C@@H](C)O` [pCT] (H-CSNLSTCVLSAYWRNLNNFHRFSGMGFGPETP-NH2; disulfide 1-7), the maximal effect (Emax) turned out to be 123 ± 8% in assay [1]; 158 ± 9% in assay [2]; 98 ± 10% in assay [3]; 51 ± 3% in assay [4]; 115 ± 9% in assay [5] (setting [6]). Moreover, the EC50 was 0.282 nM in assay [1]; 0.389 nM in assay [2]; 1.62 nM in assay [3]; 0.933 nM in assay [4] (pERK, three-parameter logistic fit); 2 nM in assay [5] (setting [7]).

Consider `CC(C)C[C@H](NC(=O)[C@H](CC(N)=O)NC(=O)[C@H](CC(N)=O)NC(=O)[C@H](CO)NC(=O)[C@H](CO)NC(=O)[C@H](CCCNC(=N)N)NC(=O)[C@@H](NC(=O)[C@H](CC(C)C)NC(=O)[C@H](Cc1ccccc1)NC(=O)[C@H](CC(N)=O)NC(=O)[C@H](C)NC(=O)[C@H](CC(C)C)NC(=O)[C@H](CCCNC(=N)N)NC(=O)[C@H](CCC(N)=O)NC(=O)[C@@H](NC(=O)[C@H](C)NC(=O)[C@@H]1CSSC[C@H](NC(=O)[C@@H](N)CCCCN)C(=O)N[C@@H](CC(N)=O)C(=O)N[C@@H]([C@@H](C)O)C(=O)N[C@@H](C)C(=O)N[C@@H]([C@@H](C)O)C(=O)N1)[C@@H](C)O)C(C)C)C(=O)NCC(=O)N1CCC[C@H]1C(=O)N[C@H](C(=O)N[C@@H](CC(C)C)C(=O)N1CCC[C@H]1C(=O)N1CCC[C@H]1C(=O)N[C@H](C(=O)N[C@@H](CC(N)=O)C(=O)N[C@H](C(=O)NCC(=O)N[C@@H](CO)C(=O)N[C@@H](CC(N)=O)C(=O)N[C@H](C(=O)N[C@@H](Cc1ccc(O)cc1)C(N)=O)[C@@H](C)O)C(C)C)[C@@H](C)O)C(C)C` [rAmy], for which the Emax in assay [1] amounted to 74 ± 19%; in assay [2], 64 ± 16%; in assay [3], 63 ± 10%; in assay [4], 51 ± 7%; in assay [5], 72 ± 7%.
